In the kinase profiling compilation of Christmann-Franck et al. (2016):

What was measured:
Experiment in all cases: radiometric filter-binding kinase assay, Kinase HotSpot
Conditions in all cases: compound 0.5 µM; ATP 10 µM
SYK (human) = SYK (human) (UniProt P43405)
BMX (human) = BMX (human) (UniProt P51813)
MAPK12 (human) = MAPK12 (human) (UniProt P53778)
FGFR2 (human) = FGFR2 (human) (UniProt P21802)
SRC (human) = SRC (human) (UniProt P12931)
TSSK2 (human) = TSSK2 (human) (UniProt Q96PF2)
SRPK3 (human) = SRPK3 (human) (UniProt Q9UPE1)
BLK (human) = BLK (human) (UniProt P51451)
VRK1 (human) = VRK1 (human) (UniProt Q99986)
MAPK8 (human) = MAPK8 (human) (UniProt P45983)
DDR2 (human) = DDR2 (human) (UniProt Q16832)
DMPK (human) = DMPK (human) (UniProt Q09013)
NEK2 (human) = NEK2 (human) (UniProt P51955)
PLK2 (human) = PLK2 (human) (UniProt Q9NYY3)
HCK (human) = HCK (human) (UniProt P08631)
IRAK1 (human) = IRAK1 (human) (UniProt P51617)
PRKD2 (human) = PRKD2 (human) (UniProt Q9BZL6)
PTK6 (human) = PTK6 (human) (UniProt Q13882)
NUAK2 (human) = NUAK2 (human) (UniProt Q9H093)
HIPK3 (human) = HIPK3 (human) (UniProt Q9H422)
CDK4 CCND3 (human) = CDK4 CCND3 (human) (UniProt P30281+P11802)
BTK (human) = BTK (human) (UniProt Q06187)
PRKCD (human) = PRKCD (human) (UniProt Q05655)
FGFR4 (human) = FGFR4 (human) (UniProt P22455)
MKNK2 (human) = MKNK2 (human) (UniProt Q9HBH9)
CDK4 CCND1 (human) = CDK4 CCND1 (human) (UniProt P24385+P11802)
MAPK9 (human) = MAPK9 (human) (UniProt P45984)
STK10 (human) = STK10 (human) (UniProt O94804)
PRKCB2 (human) = PRKCB2 (human) (UniProt P05771)
MYLK2 (human) = MYLK2 (human) (UniProt Q9H1R3)
DCLK2 (human) = DCLK2 (human) (UniProt Q8N568)
STK3 (human) = STK3 (human) (UniProt Q13188)
IGF1R (human) = IGF1R (human) (UniProt P08069)
CSNK1E (human) = CSNK1E (human) (UniProt P49674)
ITK (human) = ITK (human) (UniProt Q08881)
AKT2 (human) = AKT2 (human) (UniProt P31751)
EPHB1 (human) = EPHB1 (human) (UniProt P54762)
MAPKAPK2 (human) = MAPKAPK2 (human) (UniProt P49137)
TAOK2 (human) = TAOK2 (human) (UniProt Q9UL54)
CDK7 CCNH MNAT1 (human) = CDK7 CCNH MNAT1 (human) (UniProt P50613+P51948+P51946)
EPHA8 (human) = EPHA8 (human) (UniProt P29322)
STK24 (human) = STK24 (human) (UniProt Q9Y6E0)

CDK4 CCND3 (human), sequence (P11802 whole entry, looked up): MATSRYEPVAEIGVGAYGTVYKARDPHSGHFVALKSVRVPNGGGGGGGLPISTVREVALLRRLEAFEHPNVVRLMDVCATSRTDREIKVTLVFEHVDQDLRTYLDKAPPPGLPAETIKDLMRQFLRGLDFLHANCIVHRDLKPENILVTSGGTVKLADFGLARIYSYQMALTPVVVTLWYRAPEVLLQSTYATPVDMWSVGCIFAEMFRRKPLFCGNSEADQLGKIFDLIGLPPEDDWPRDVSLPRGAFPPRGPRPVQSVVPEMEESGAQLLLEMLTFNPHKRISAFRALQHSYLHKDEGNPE
CDK4 CCND3 (human), sequence (P30281 whole entry, looked up): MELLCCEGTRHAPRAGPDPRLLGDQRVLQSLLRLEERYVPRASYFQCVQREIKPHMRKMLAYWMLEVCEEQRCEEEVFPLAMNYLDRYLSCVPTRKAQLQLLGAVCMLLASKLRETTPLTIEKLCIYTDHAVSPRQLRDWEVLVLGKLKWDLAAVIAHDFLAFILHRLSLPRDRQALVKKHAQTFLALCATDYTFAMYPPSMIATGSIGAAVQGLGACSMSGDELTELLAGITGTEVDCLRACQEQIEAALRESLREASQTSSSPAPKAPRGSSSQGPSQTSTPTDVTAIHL
CDK4 CCND1 (human), sequence (P11802 whole entry, looked up): as the sequence (P11802 whole entry, looked up) above
CDK4 CCND1 (human), sequence (P24385 whole entry, looked up): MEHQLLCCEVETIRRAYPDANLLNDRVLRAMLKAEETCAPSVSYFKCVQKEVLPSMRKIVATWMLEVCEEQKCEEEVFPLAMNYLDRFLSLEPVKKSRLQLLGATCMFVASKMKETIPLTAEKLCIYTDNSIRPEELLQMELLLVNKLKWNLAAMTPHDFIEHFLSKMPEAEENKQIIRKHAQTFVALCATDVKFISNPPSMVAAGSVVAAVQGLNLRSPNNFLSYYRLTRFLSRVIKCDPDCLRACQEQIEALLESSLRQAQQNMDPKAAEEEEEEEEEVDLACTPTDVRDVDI
BMX (human), sequence (P51813 whole entry, looked up): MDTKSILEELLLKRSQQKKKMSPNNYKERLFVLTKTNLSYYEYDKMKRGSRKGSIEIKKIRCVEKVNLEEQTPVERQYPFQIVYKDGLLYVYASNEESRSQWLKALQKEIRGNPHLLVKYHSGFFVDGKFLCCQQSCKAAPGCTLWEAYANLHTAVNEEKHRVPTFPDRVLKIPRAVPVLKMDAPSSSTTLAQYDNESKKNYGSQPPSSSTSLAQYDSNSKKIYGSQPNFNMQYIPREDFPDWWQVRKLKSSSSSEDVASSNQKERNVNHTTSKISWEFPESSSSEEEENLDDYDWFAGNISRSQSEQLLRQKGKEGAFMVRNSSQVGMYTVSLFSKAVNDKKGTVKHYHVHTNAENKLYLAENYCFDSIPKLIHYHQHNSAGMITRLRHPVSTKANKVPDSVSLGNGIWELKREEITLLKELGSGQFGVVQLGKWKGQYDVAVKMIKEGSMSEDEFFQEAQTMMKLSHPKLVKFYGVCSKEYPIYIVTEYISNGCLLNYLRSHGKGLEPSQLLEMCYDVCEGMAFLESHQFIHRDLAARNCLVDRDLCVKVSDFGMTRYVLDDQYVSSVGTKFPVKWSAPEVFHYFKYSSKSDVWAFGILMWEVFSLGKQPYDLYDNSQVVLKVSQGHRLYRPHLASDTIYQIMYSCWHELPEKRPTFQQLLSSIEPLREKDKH
MAPK8 (human), sequence (P45983 whole entry, looked up): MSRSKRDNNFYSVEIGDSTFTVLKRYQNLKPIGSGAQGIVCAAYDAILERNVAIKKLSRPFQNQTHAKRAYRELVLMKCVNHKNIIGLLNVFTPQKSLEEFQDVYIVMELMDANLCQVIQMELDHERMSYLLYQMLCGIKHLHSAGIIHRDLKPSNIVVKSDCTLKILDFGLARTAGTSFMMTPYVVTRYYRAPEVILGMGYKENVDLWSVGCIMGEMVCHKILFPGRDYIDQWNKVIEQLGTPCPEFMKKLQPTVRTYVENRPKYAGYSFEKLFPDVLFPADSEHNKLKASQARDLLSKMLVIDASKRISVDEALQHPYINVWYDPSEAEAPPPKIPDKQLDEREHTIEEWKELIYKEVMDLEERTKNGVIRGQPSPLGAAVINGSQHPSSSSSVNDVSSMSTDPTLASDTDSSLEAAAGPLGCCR
STK10 (human), sequence (O94804 whole entry, looked up): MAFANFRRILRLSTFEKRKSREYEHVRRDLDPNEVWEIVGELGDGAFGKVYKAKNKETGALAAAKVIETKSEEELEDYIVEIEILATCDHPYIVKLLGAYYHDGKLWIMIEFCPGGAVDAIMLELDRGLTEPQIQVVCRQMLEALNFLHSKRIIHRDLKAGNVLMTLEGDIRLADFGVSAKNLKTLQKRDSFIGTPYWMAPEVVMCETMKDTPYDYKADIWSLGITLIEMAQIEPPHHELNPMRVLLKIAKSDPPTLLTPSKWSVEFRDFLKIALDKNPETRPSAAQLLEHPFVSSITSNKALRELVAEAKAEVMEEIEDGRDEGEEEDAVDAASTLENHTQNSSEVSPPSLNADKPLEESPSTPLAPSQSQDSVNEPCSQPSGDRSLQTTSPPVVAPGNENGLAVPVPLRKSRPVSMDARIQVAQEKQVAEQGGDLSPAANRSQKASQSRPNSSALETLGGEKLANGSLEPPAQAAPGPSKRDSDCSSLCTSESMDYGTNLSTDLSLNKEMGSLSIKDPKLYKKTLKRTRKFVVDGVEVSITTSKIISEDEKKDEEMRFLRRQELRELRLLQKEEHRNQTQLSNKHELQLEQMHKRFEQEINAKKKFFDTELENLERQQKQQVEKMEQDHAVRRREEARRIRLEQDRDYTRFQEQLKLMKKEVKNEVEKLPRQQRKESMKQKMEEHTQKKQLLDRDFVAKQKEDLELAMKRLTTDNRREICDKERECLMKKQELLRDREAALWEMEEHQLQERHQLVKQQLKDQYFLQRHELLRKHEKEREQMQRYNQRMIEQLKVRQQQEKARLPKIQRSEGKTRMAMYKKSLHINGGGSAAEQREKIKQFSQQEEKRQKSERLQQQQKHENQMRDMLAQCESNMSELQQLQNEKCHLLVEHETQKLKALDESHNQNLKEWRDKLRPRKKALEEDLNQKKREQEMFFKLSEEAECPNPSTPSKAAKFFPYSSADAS
NEK2 (human), sequence (P51955 whole entry, looked up): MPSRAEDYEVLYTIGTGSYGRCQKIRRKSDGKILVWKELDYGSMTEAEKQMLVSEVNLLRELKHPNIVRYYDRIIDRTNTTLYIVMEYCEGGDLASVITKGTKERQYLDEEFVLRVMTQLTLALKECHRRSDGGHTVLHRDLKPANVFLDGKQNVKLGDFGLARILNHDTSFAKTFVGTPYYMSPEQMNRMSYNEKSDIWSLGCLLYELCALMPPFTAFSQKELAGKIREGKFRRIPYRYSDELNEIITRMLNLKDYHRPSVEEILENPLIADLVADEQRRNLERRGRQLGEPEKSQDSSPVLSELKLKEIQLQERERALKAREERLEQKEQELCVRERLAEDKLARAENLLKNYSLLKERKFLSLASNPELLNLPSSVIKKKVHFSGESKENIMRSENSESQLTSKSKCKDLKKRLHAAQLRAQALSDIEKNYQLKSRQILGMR
PRKCD (human), sequence (Q05655 whole entry, looked up): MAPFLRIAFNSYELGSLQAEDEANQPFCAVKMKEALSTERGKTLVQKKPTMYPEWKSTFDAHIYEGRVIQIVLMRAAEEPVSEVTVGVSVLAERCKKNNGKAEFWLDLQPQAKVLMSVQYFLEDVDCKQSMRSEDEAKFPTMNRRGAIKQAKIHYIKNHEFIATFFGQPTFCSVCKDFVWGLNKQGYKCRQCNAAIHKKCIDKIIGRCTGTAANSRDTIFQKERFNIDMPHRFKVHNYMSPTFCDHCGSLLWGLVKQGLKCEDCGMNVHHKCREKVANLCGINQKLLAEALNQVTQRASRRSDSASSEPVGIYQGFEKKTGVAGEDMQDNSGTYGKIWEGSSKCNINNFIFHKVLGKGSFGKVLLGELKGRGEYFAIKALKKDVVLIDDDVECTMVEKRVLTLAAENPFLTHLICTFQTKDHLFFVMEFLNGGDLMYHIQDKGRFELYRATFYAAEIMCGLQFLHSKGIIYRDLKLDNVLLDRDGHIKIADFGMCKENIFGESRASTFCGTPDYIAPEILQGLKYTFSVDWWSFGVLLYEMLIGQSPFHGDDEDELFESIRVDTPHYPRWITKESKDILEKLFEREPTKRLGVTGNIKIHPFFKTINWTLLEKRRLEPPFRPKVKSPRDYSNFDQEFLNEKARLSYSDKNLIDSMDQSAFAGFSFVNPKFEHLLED
VRK1 (human), sequence (Q99986 whole entry, looked up): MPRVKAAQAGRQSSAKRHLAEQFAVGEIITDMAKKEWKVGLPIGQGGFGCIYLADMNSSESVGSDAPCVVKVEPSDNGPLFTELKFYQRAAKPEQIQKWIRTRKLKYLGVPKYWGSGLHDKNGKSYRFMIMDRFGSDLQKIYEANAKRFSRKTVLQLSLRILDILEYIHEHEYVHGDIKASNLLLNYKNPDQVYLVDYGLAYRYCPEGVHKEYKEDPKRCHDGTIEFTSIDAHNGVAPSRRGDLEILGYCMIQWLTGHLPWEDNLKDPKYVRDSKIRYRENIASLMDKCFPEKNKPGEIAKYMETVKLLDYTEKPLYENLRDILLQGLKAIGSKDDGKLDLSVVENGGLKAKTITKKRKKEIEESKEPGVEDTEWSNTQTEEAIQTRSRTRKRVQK
CSNK1E (human), sequence (P49674 whole entry, looked up): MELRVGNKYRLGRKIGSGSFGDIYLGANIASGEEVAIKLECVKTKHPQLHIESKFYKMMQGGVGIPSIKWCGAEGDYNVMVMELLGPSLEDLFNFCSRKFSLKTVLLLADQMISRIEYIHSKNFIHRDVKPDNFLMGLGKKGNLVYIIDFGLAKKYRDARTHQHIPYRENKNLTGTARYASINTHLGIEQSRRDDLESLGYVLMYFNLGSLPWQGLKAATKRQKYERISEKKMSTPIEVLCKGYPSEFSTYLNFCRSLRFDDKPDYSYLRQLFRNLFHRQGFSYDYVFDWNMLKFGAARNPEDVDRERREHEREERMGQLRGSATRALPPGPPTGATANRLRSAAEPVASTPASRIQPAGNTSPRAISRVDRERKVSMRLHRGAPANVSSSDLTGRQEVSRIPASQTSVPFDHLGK

**Q.** With `Nc1ncnc2c1cnn2-c1ccccc1` as the compound, how does the residual activity (SYK (human)) read?
**A.** The residual activity was 96%.

**Q.** And the residual activity (BMX (human))?
**A.** The residual activity was 96.8%.

**Q.** What about the residual activity (MAPK12 (human)) of the same compound?
**A.** Its residual activity is 90.6%.

**Q.** And the residual activity (FGFR2 (human))?
**A.** The residual activity was 100%.

**Q.** And the residual activity (SRC (human))?
**A.** Its residual activity is 96.9%.

**Q.** What about the residual activity (TSSK2 (human)) of the same compound?
**A.** The residual activity was 106%.

**Q.** What about the residual activity (SRPK3 (human)) of the same compound?
**A.** The residual activity was 96.4%.

**Q.** And the residual activity (BLK (human))?
**A.** Its residual activity is 100%.

**Q.** And the residual activity (VRK1 (human))?
**A.** The residual activity was 84.4%.

**Q.** And the residual activity (MAPK8 (human))?
**A.** Its residual activity is 87.1%.

**Q.** And the residual activity (DDR2 (human))?
**A.** The residual activity was 92.3%.

**Q.** And the residual activity (DMPK (human))?
**A.** Its residual activity is 106%.

**Q.** What about the residual activity (NEK2 (human)) of the same compound?
**A.** Its residual activity is 98.8%.

**Q.** What about the residual activity (PLK2 (human)) of the same compound?
**A.** Its residual activity is 99.2%.

**Q.** What about the residual activity (HCK (human)) of the same compound?
**A.** Its residual activity is 92.4%.

**Q.** And the residual activity (IRAK1 (human))?
**A.** The residual activity was 85.8%.

**Q.** What about the residual activity (PRKD2 (human)) of the same compound?
**A.** Its residual activity is 126%.

**Q.** What about the residual activity (PTK6 (human)) of the same compound?
**A.** Its residual activity is 92%.

**Q.** And the residual activity (NUAK2 (human))?
**A.** The residual activity was 75.2%.

**Q.** What about the residual activity (HIPK3 (human)) of the same compound?
**A.** The residual activity was 97.6%.

**Q.** And the residual activity (CDK4 CCND3 (human))?
**A.** The residual activity was 94%.

**Q.** What about the residual activity (BTK (human)) of the same compound?
**A.** Its residual activity is 98.7%.

**Q.** What about the residual activity (PRKCD (human)) of the same compound?
**A.** The residual activity was 93%.

**Q.** What about the residual activity (FGFR4 (human)) of the same compound?
**A.** Its residual activity is 94.8%.

**Q.** What about the residual activity (MKNK2 (human)) of the same compound?
**A.** The residual activity was 72.7%.

**Q.** What about the residual activity (CDK4 CCND1 (human)) of the same compound?
**A.** Its residual activity is 103%.

**Q.** And the residual activity (MAPK9 (human))?
**A.** Its residual activity is 88.2%.

**Q.** And the residual activity (STK10 (human))?
**A.** The residual activity was 95.4%.

**Q.** What about the residual activity (PRKCB2 (human)) of the same compound?
**A.** The residual activity was 96.5%.

**Q.** What about the residual activity (MYLK2 (human)) of the same compound?
**A.** The residual activity was 99.9%.

**Q.** What about the residual activity (DCLK2 (human)) of the same compound?
**A.** The residual activity was 101%.

**Q.** What about the residual activity (STK3 (human)) of the same compound?
**A.** The residual activity was 92.3%.

**Q.** And the residual activity (IGF1R (human))?
**A.** Its residual activity is 96.4%.

**Q.** And the residual activity (CSNK1E (human))?
**A.** The residual activity was 81.5%.

**Q.** And the residual activity (ITK (human))?
**A.** The residual activity was 92.7%.

**Q.** And the residual activity (AKT2 (human))?
**A.** Its residual activity is 102%.

**Q.** What about the residual activity (EPHB1 (human)) of the same compound?
**A.** The residual activity was 97.5%.

**Q.** What about the residual activity (MAPKAPK2 (human)) of the same compound?
**A.** Its residual activity is 98.6%.

**Q.** And the residual activity (TAOK2 (human))?
**A.** Its residual activity is 93%.

**Q.** And the residual activity (CDK7 CCNH MNAT1 (human))?
**A.** Its residual activity is 102%.

**Q.** What about the residual activity (EPHA8 (human)) of the same compound?
**A.** Its residual activity is 90.5%.

**Q.** And the residual activity (STK24 (human))?
**A.** The residual activity was 96.3%.

**Q.** Which results are given for `FC(F)(F)c1ccc(/C=C/c2nc(COc3ccc(CCCCn4ccnn4)cc3)co2)cc1`?
**A.** residual activity (SYK (human)): 97.4%; residual activity (BMX (human)): 99%; residual activity (MAPK12 (human)): 98.3%; residual activity (FGFR2 (human)): 96.7%; residual activity (SRC (human)): 92.5%; residual activity (TSSK2 (human)): 100%; residual activity (SRPK3 (human)): 104%; residual activity (BLK (human)): 102%; residual activity (VRK1 (human)): 99.8%; residual activity (MAPK8 (human)): 105%; residual activity (DDR2 (human)): 101%; residual activity (DMPK (human)): 101%; residual activity (NEK2 (human)): 96.2%; residual activity (PLK2 (human)): 99.7%; residual activity (HCK (human)): 93.9%; residual activity (IRAK1 (human)): 99.5%; residual activity (PRKD2 (human)): 96.9%; residual activity (PTK6 (human)): 97.8%; residual activity (NUAK2 (human)): 101%; residual activity (HIPK3 (human)): 100%; residual activity (CDK4 CCND3 (human)): 119%; residual activity (BTK (human)): 98.2%; residual activity (PRKCD (human)): 99.6%; residual activity (FGFR4 (human)): 88.3%; residual activity (MKNK2 (human)): 101%; residual activity (CDK4 CCND1 (human)): 96.8%; residual activity (MAPK9 (human)): 106%; residual activity (STK10 (human)): 92.6%; residual activity (PRKCB2 (human)): 93.1%; residual activity (MYLK2 (human)): 101%; residual activity (DCLK2 (human)): 102%; residual activity (STK3 (human)): 95.5%; residual activity (IGF1R (human)): 101%; residual activity (CSNK1E (human)): 95.5%; residual activity (ITK (human)): 102%; residual activity (AKT2 (human)): 99.9%; residual activity (EPHB1 (human)): 99.4%; residual activity (MAPKAPK2 (human)): 97.9%; residual activity (TAOK2 (human)): 105%; residual activity (CDK7 CCNH MNAT1 (human)): 107%; residual activity (EPHA8 (human)): 104%; residual activity (STK24 (human)): 101%
